Measured values taken from article PMC9023544, “Ketone-selenoesters as potential anticancer and multidrug resistance modulation agents in 2D and 3D ovarian and breast cancer in vitro models” (Scientific Reports, 2022).

Key:
[1] = test system: HOC (human parental ovarian adenocarcinoma, A2780); test: Cytotoxic activity, 2D, resazurin, 72 h; type: cell-based; conditions: for IC50: Homo sapiens, A2780, 72 h, read-out: HOC IC50; for SI HEK293/HOC: IC50 HEK293 / IC50 HOC
Protocol: The cytotoxic potential of selenoesters was tested on several cancer cell lines—HOC (human parental ovarian adenocarcinoma, HOC, A2780, Sigma-Aldrich), HOC/ADR (sub-line resistant to Adriamycin, A2780/ADR, Sigma-Aldrich), MCF-7 (human breast adenocarcinoma, ATCC®, HTB-22TM), MCF-7/PAX (resistant sub-line established by gradual adaptation of parental cells to increased concentration of paclitaxel; kindly provided by Division of Cell and Molecular Biology, Third Faculty of Medicine, Charles University, Czech Republic) and on one non-cancerous cell line—HEK293 (human embryonic kidney cell line, Leibniz Institute, DSMZ-German Collection of Microorganisms and Cell Cultures GmbH). All mentioned cell lines were authenticated using short tandem repeat (STR) profiling. Cell lines were cultivated in DMEM medium (10% FBS, 1× antibiotic antimycotic solution), except for HEK293 cell line which was cultivated without antibiotics. In case of the resistant cell lines, the medium was supplemented with a required concentration of cytostatics to maintain resistance (HOC/ADR—100 nM Adriamycin; MCF-7/PAX—300 nM paclitaxel). All cells were cultivated in a CO2 incubator (5% CO2, 37 °C, Thermo Fisher Scientific).
For the experiment, the cells at passage number 5–20 were seeded at a 1 × 10^5 cells/mL concentration into 96-well plates to 100 µL final volume. The final concentration range of the compounds was 0.63–20 µM. After an incubation of 72 h, the plates were washed 1× with PBS and resazurin solution (0.03 mg/mL in 1× PBS) was added. After 1 h of incubation, the fluorescence signal was recorded (ex./em. 560/590 nm).
The selectivity index (SI) was determined as the ratio of IC50 value for the non-cancerous cells to IC50 for the cancer cell line. For resistant cell lines, the collateral sensitivity (CS) was calculated as the ratio of IC50 value in sensitive tumour cells to IC50 in the resistant cancer cell line. In both cases, the selectivity is considered as: (1) strongly selective when SI or CS value is above 6, (2) moderately selective when SI or CS is between 3 and 6, (3) slightly selective when SI or CS is between 1 and 3 and (4) non-selective when SI or CS is less than 1[23].

[2] = test system: ABC superfamily genes in HOC/ADR; test: Expression of genes encoding ABC transporters, qPCR; type: cell-based, human; conditions: IC10 alone, 48 h
Protocol: Based on the fact that compounds K3, K4, K7 sensitized drug-resistant cell lines (HOC/ADR, MCF-7/PAX) and modulated ATPase activity of one from the ABC proteins (P-gp), we verified the potential of these compounds to affect ABC superfamily gene expression. The ovarian and breast cancer cell lines (parental cells and resistant sub-line) were analysed for the expression profile of genes encoding the ABC proteins in the previous works[18]–[20]. […] After 48 h, the effect of compounds alone or in the combination with cytostatics was observed (Supplementary Tables 1, Table 2).
To determine the impact of selected compounds on the expression of genes encoding ABC transporter, HOC/ADR and MCF-7/PAX cells were seeded for 24 h into 5 cm Petri dishes with DMEM medium at the cell density 1 × 10^5 cells/mL. Afterwards, the cells were washed 1× with PBS and new fresh DMEM supplemented with K3, K4, and K7 (in concentration corresponding to their IC10 value) alone or combined with cytostatics (Adriamycin or paclitaxel in concentration corresponding to their IC25 value) was added. In the experiment, positive and negative control was also included (positive—untreated cells, negative—cells treated only with cytostatics). After 48 h exposure, the cells were washed once with PBS and released from the surface by using the above-mentioned trypsin–EDTA procedure. The enzyme reaction was stopped by medium addition and the cells were centrifuged (3200×g; 10 min, 4 °C). The supernatants were removed and before the next centrifugation, the pellets were resuspended in 1.5 mL of cooled PBS (5400×g; 10 min, 4 °C). After the second washing step, the cells were centrifuged another time (10,000×g; 3 min, 4 °C). Subsequently, 1 mL of Trizol (Invitrogen) was added to the pellets and the compounds were stored − 80 °C.
The RNA concentration of selenoester treated samples was determined using QuantiT RiboGreen RNA Assay Kit and Infinite M200 plate reader (Tecan, Männedor, Switzerland). The cDNA was synthesized from 0.5 µg of total RNA by RevertAid First Strand Synthesis cDNA Kit (MBI Fermentas, Vilnius, Lithuania). To determine the quality of cDNA, the ubiquitin C gene fragment was amplified. The experiment was performed in 384-well block by using ViiA7 Real-Time PCR System (Life Technologies, Camarillo, California, United States). A master mix contained 0.25 µL of 20× TaqMan Gene Expression Assay, 1 µL of 5× HotFIREPol Probe qPCR Mix Plus, 1.75 µL of RNase free water and 2 µL of 8× diluted cDNA. The final reaction volume was 5 µL. The PCR parameters were as follows: initial hold (50 °C for 2 min), denaturation (95 °C for 10 min), followed by 45 cycles (denaturation at 95 °C for 15 s, annealing at 60 °C for 1 min). After each cycle, the fluorescent signal was determined. For each compound, duplicates were analysed and those with a standard deviation higher than 0.5 Ct were re-analysed. A quantitate real-time PCR was followed by MIQE guidelines. To compare the relative transcript levels of genes, the software REST 2009 (Qiagen, Hilden, Germany) was used.
Table 1. Effect of selenoesters on the expression of genes of the ABC superfamily in Adriamycin-resistant ovarian carcinoma cell line (HOC/ADR).
Gene expression of ABC transporters were estimated using comercial predesigned Taqman Gene Expression Assays (Life technologies). TaqMan Gene Expression Assays are based on 5´ nuclease chemistry, and each assay contains the primer and probe set for target of interest. Taqman assays IDs and GenBank Accession numbers of reference sequencies identifying their location and amplicon lengths are included in […]. * Relative transcript levels (P-value ) in treated and non-treated cancer cell lines were compared using REST 2009 software.

Structure (SMILES)	IC50 [1] [nM]	SI HEK293/HOC [1]	ABCA1 Expression Difference [2]	ABCA2 Expression Difference [2]	ABCA3 Expression Difference [2]	ABCA5 Expression Difference [2]	ABCA7 Expression Difference [2]	ABCA7 Treated vs. Untr. [2]	ABCB1 Expression Difference [2]	ABCB2 Expression Difference [2]	ABCB2 Treated vs. Untr. [2]	ABCB3 Expression Difference [2]	ABCB6 Expression Difference [2]	ABCB8 Expression Difference [2]	ABCB9 Expression Difference [2]	ABCB10 Expression Difference [2]	ABCC1 Expression Difference [2]	ABCC2 Expression Difference [2]	ABCC5 Expression Difference [2]	ABCC10 Expression Difference [2]	further results
CC(=O)C[Se]C(=O)c1ccccc1C(F)(F)F [K4]	2200 ± 100	2.5 ± 0.2	1.347	0.948	0.832	2.334	0.359	DOWN	3.696	0.435	DOWN	4.568	5.132	3.526	4.981	8.165	8.545	3.272	2.336	1.545	ABCA3 Treated vs. Untr. [2]: DOWN; ABCB7 Expression Difference [2]: 7.250; ABCD1 Expression Difference [2]: 0.796; ABCD1 Treated vs. Untr. [2]: DOWN; ABCD2 Expression Difference [2]: 4.885; ABCD3 Expression Difference [2]: 3.302; ABCD4 Expression Difference [2]: 2.681; ABCE1 Expression Difference [2]: 6.945; ABCF1 Expression Difference [2]: 1.998; ABCF2 Expression Difference [2]: 3.096; ABCF3 Expression Difference [2]: 2.262; ABCG1 Expression Difference [2]: 1.213; ABCG2 Expression Difference [2]: 1.302; ABCG4 Expression Difference [2]: 0.776; ABCG4 Treated vs. Untr. [2]: DOWN
CC(=O)C[Se]C(=O)c1ccc(Br)cc1 [K3]	1800	1.3 ± 0.0	0.968	0.997	0.838	2.693	0.322	DOWN	3.825	0.315	DOWN	4.904	4.860	2.659	4.156	7.275	6.415	2.907	2.301	1.562	ABCA3 Treated vs. Untr. [2]: DOWN; ABCD1 Expression Difference [2]: 0.665; ABCD1 Treated vs. Untr. [2]: DOWN; ABCD2 Expression Difference [2]: 1.845; ABCD3 Expression Difference [2]: 2.960; ABCD4 Expression Difference [2]: 2.760; ABCE1 Expression Difference [2]: 7.298; ABCF1 Expression Difference [2]: 1.638; ABCF2 Expression Difference [2]: 2.868; ABCF3 Expression Difference [2]: 2.163; ABCG1 Expression Difference [2]: 0.932; ABCG2 Expression Difference [2]: 1.869; ABCG4 Expression Difference [2]: 0.755; ABCG4 Treated vs. Untr. [2]: DOWN
CC(=O)C[Se]C(=O)c1ccc(C(C)(C)C)cc1 [K7]	1100 ± 100	1.7 ± 0.2	1.104	1.775	1.018	1.970	0.341	DOWN	5.009	0.591	DOWN	3.406	4.646	3.581	4.530	7.288	7.835	3.865	3.327	1.899	ABCB7 Expression Difference [2]: 7.145; ABCD1 Expression Difference [2]: 0.898; ABCD1 Treated vs. Untr. [2]: DOWN; ABCD2 Expression Difference [2]: 0.638; ABCD2 Treated vs. Untr. [2]: DOWN; ABCD3 Expression Difference [2]: 4.007; ABCD4 Expression Difference [2]: 3.541; ABCE1 Expression Difference [2]: 10.154; ABCF1 Expression Difference [2]: 2.212; ABCF2 Expression Difference [2]: 4.029; ABCF3 Expression Difference [2]: 3.001; ABCG1 Expression Difference [2]: 1.059; ABCG2 Expression Difference [2]: 1.468; ABCG4 Expression Difference [2]: 1.431
